Values quoted from earlier work as cited in US4803081A, “New pharmaceutical preparations with extended release” (Aktiebolaget Hassle, priority 1986, dated 1989).
In brackets after ≈: the same amount, converted by molar mass. Where two headings read alike, the source gives them in different places.

Settings: for solubility (in words): very low = less than 0.1 per cent by weight in water

CCOC(=O)C1=C(C)NC(C)=C(C(=O)OC)C1c1cccc(Cl)c1Cl (centres unmarked) [felodipine, 4-(2,3-dichlorophenyl)-1,4-dihydro-2,6-dimethyl-3,5-pyridinedicarboxylic acid ethyl methyl ester]
solubility (in words): very low solubility
solubility (in words) (listed as Felodipine): practically insoluble
solubility in water (water): 0.5 µg/mL (≈ 1.3 µM)

O=C1NC(=O)C(c2ccccc2)(c2ccccc2)N1 [phenytoin]
solubility (in words): very low solubility

COC1=CC(=O)C[C@@H](C)[C@]12Oc1c(Cl)c(OC)cc(OC)c1C2=O [griseofulvin]
solubility (in words): very low solubility
